Experimental data as given in article PMC11844072, “Novel 5,6-dichlorobenzimidazole derivatives as dual BRAFWT and BRAFV600E inhibitors: design, synthesis, anti-cancer activity and molecular dynamics simulations” (BMC Chemistry, 2025).

Key:
Assay in all cases: NCI 60 single concentration growth inhibition
Format in all cases: cell-based, human
SF-539 = details: Homo sapiens, SF-539, CNS cancer, read-out: GI%
Description: (§1) The synthesized dichlorobenzimidazoles 10a–p were assayed for their influence on divers cancer cell lines according to the method presented in the Additional file A.
(§2) 5. Screening of cytotoxic activity against a panel of sixty human tumor cell lines
(§3) The selected compounds by NCI were evaluated for their anticancer activity in a two-stage process. First, these compounds were screened against the full NCI 60 cell lines panel at a single high dose of 10 µM. Then, the output from the single dose screen is reported as a mean graph. […]
(§4) at five different minimal concentrations.
(§5) Assay protocol. The human tumor cell lines of the cancer screening panel are grown in RPMI 1640 medium containing 5% fetal bovine serum and 2 mM L-glutamine. For a typical screening experiment, cells are inoculated into 96 well microtiter plates in 100 µL at plating densities ranging from 5000 to 40,000 cells/well depending on the doubling time of individual cell lines. After cell inoculation, the microtiter plates are incubated at 37 °C, 5% CO 2, 95% air and 100% relative humidity for 24 h prior to addition of the experimental drugs.
(§6) After 24 h, two plates of each cell line are fixed in situ with TCA, to represent a measurement of the cell population for each cell line at the time of drug addition (Tz). The experimental drugs are solubilized in dimethyl sulfoxide at 400-fold the desired final maximum test concentration and stored frozen prior to use. At the time of drug addition, an aliquot of frozen concentrate is thawed and diluted to twice the desired final maximum test concentration with complete medium containing 50 µg/mL gentamicin. Additional four, 10-fold or ½ log serial dilutions are made to provide a total of five drug concentrations plus control.
(§7) Aliquots of […] of these different drug dilutions are added to the appropriate microtiter wells already containing […] of medium, resulting in the required final drug concentrations.
(§8) Following drug addition, the plates are incubated for an additional 48 h at 37 °C, 5% CO 2, 95% air, and 100% relative humidity. For adherent cells, the assay is terminated by the addition of cold TCA.
(§9) Cells are fixed in situ by the gentle addition of 50 µL of cold 50% (w/v) TCA (final concentration, 10% TCA) and incubated for 60 min at 4 °C. The supernatant is discarded, and the plates are washed five times with tap water and air dried. Sulforhodamine B (SRB) solution ([…]) at 0.4% (w/v) in 1% acetic acid is added to each well, and plates are incubated for 10 min at room temperature. After staining, unbound dye is removed by washing five times with 1% acetic acid and the plates are air dried. Bound stain is subsequently solubilized with 10 mM trizma base, and the absorbance is read on an automated plate reader at a wavelength of 515 nm. For suspension cells, the methodology is […]
(§10) the same except that the assay is terminated by fixing settled cells at the bottom of the wells by gently adding 50 µl of 80% TCA (final concentration, 16% TCA). Using the seven absorbance measurements [time zero, (Tz), control growth, (C), and test growth in the presence of drug at the five concentration levels (Ti)], the percentage growth is calculated at each of the drug concentrations […]
(§11) Percentage growth inhibition is calculated as: [(Ti Tz)/(C–Tz)] x 100 for concentrations for which Ti>/=Tz and [(Ti-Tz)/Tz] x 100 for concentrations for which Ti < Tz.
(§12) Three dose response parameters are calculated for each experimental agent. Growth […]
(§13) concentration resulting in a 50% reduction in the net protein increase (as measured by SRB staining) in control cells during the drug incubation. The drug concentration resulting in total growth inhibition (TGI) is calculated from Ti = Tz. […]
(§14) reduction in the measured protein at the end of the drug treatment as compared to that at the beginning) indicating a net loss of cells following treatment is calculated from [(Ti–Tz)/Tz] x 100 =
(§15) _50. Values are calculated for each of these three parameters if the level of activity is reached; […]

A498 = details: Homo sapiens, A498, Renal cancer, read-out: GI%
Description: as §1, §2, §3, §4, §5, §6, §7, §8, §9, §10, §11, §12, §13, §14, §15

NCI-H23 = details: Homo sapiens, NCI-H23, Non-small cell lung cancer, read-out: GI%
Description: as §1, §2, §3, §4, §5, §6, §7, §8, §9, §10, §11, §12, §13, §14, §15

HL-60(TB) = details: Homo sapiens, Leukemia, read-out: GI%
Description: as §1, §2, §3, §4, §5, §6, §7, §8, §9, §10, §11, §12, §13, §14, §15

HOP-62 = details: Homo sapiens, HOP-62, Non-small cell lung cancer, read-out: GI%
Description: as §1, §2, §3, §4, §5, §6, §7, §8, §9, §10, §11, §12, §13, §14, §15

ACHN = details: Homo sapiens, Renal cancer, read-out: GI%
Description: as §1, §2, §3, §4, §5, §6, §7, §8, §9, §10, §11, §12, §13, §14, §15

786-0 = details: Homo sapiens, 786-0, Renal cancer, read-out: GI%
Description: as §1, §2, §3, §4, §5, §6, §7, §8, §9, §10, §11, §12, §13, §14, §15

UACC-257 = details: Homo sapiens, UACC-257, Melanoma, read-out: GI%
Description: as §1, §2, §3, §4, §5, §6, §7, §8, §9, §10, §11, §12, §13, §14, §15

SK-MEL-28 = details: Homo sapiens, SK-MEL-28, Melanoma, read-out: GI%
Description: as §1, §2, §3, §4, §5, §6, §7, §8, §9, §10, §11, §12, §13, §14, §15

MCF7 = details: Homo sapiens, MCF7, Breast cancer, read-out: GI%
Description: as §1, §2, §3, §4, §5, §6, §7, §8, §9, §10, §11, §12, §13, §14, §15

HCT-116 = details: Homo sapiens, HCT-116, Colon cancer, read-out: GI%
Description: as §1, §2, §3, §4, §5, §6, §7, §8, §9, §10, §11, §12, §13, §14, §15

HS 578T = details: Homo sapiens, Breast cancer, read-out: GI%
Description: as §1, §2, §3, §4, §5, §6, §7, §8, §9, §10, §11, §12, §13, §14, §15

EKVX = details: Homo sapiens, Non-small cell lung cancer, read-out: GI%
Description: as §1, §2, §3, §4, §5, §6, §7, §8, §9, §10, §11, §12, §13, §14, §15

OVCAR-8 = details: Homo sapiens, OVCAR-8, Ovarian cancer, read-out: GI%
Description: as §1, §2, §3, §4, §5, §6, §7, §8, §9, §10, §11, §12, §13, §14, §15

UACC-62 = details: Homo sapiens, UACC-62, Melanoma, read-out: GI%
Description: as §1, §2, §3, §4, §5, §6, §7, §8, §9, §10, §11, §12, §13, §14, §15

CAKI-1 = details: Homo sapiens, CAKI-1, Renal cancer, read-out: GI%
Description: as §1, §2, §3, §4, §5, §6, §7, §8, §9, §10, §11, §12, §13, §14, §15

MDA-MB-231/ATCC = details: Homo sapiens, Breast cancer, read-out: GI%
Description: as §1, §2, §3, §4, §5, §6, §7, §8, §9, §10, §11, §12, §13, §14, §15

CCRF-CEM = details: Homo sapiens, Leukemia, read-out: GI%
Description: as §1, §2, §3, §4, §5, §6, §7, §8, §9, §10, §11, §12, §13, §14, §15

T-47D = details: Homo sapiens, T47D, Breast cancer, read-out: GI%
Description: as §1, §2, §3, §4, §5, §6, §7, §8, §9, §10, §11, §12, §13, §14, §15

SN12C = details: Homo sapiens, Renal cancer, read-out: GI%
Description: as §1, §2, §3, §4, §5, §6, §7, §8, §9, §10, §11, §12, §13, §14, §15

BT-549 = details: Homo sapiens, BT-549, Breast cancer, read-out: GI%
Description: as §1, §2, §3, §4, §5, §6, §7, §8, §9, §10, §11, §12, §13, §14, §15

OVCAR-5 = details: Homo sapiens, OVCAR-5, Ovarian cancer, read-out: GI%
Description: as §1, §2, §3, §4, §5, §6, §7, §8, §9, §10, §11, §12, §13, §14, §15

SMILES	inhibition at 10 µM (SF-539)	inhibition at 10 µM (A498)	inhibition at 10 µM (NCI-H23)	inhibition at 10 µM (HL-60(TB))	inhibition at 10 µM (HOP-62)	inhibition at 10 µM (ACHN)	inhibition at 10 µM (786-0)	inhibition at 10 µM (UACC-257)	inhibition at 10 µM (SK-MEL-28)	inhibition at 10 µM (MCF7)	inhibition at 10 µM (HCT-116)	inhibition at 10 µM (HS 578T)	inhibition at 10 µM (EKVX)	inhibition at 10 µM (OVCAR-8)	inhibition at 10 µM (UACC-62)	inhibition at 10 µM (CAKI-1)	inhibition at 10 µM (MDA-MB-231/ATCC)	inhibition at 10 µM (CCRF-CEM)	inhibition at 10 µM (T-47D)	inhibition at 10 µM (SN12C)	also measured
COc1ccc(-c2nc3cc(Cl)c(Cl)cc3n2CC(=O)NN=Cc2ccc(OC)c(O)c2)cc1 [Compound 10k, 2-(5,6-Dichloro-2-(4-methoxyphenyl)-1H-benzo[d]imidazol-1-yl)-N'-(3-hydroxy-4-methoxybenzylidene)acetohydrazide]	29.1%	29.7%	21.1%	60.8%	< 5%	36.6%	25.3%	40.1%	17.3%	68%	22%	27.4%	56.4%	29.3%	35.4%	48.2%	33.9%	43.8%	43.4%	16.3%	inhibition at 10 µM (BT-549): 31.7%; inhibition at 10 µM (OVCAR-5): < 5%
COC(=O)COc1ccc(C=NNC(=O)Cn2c(-c3ccc(OC)cc3)nc3cc(Cl)c(Cl)cc32)cc1OC [Compound 10p, Methyl-2-(4-((2-(2-(5,6-dichloro-2-(4-methoxyphenyl)-1H-benzo[d]imidazol-1-yl)acetyl)hydrazono)methyl)-2-methoxyphenoxy)acetate]	101%	< 5%	< 5%	< 5%	< 5%	95.2%	162%	22.7%	6.03%	25.8%	25.1%	118%	18.9%	143%	36.5%	16.5%	64.6%	21.1%	81.1%	99.5%	inhibition at 10 µM (BT-549): 15.1%; inhibition at 10 µM (OVCAR-5): < 5%
